Source: patent publication US20210138025A1, “CATIONIC PEPTIDES WITH IMMUNOMODULATORY AND/OR ANTI-BIOFILM ACTIVITIES” (priority 2018, published 2021)
Non-standard residues stand in square brackets, D forms with d. No end group written: not given here. hArg = N=C(N)NCCCC[C@H](N)C(=O)O; Agb = N=C(N)NCC[C@H](N)C(=O)O; Orn = NCCC[C@H](N)C(=O)O; Dab = NCC[C@H](N)C(=O)O

test system: S. aureus (MRSA SAP0017); assay type: cell-based, Staphylococcus aureus; conditions: SPOT synthesized control peptides, determined as in Table 5; Table 7
Protocol: Methods of assessment of anti-biofilm activity: MRSA S. aureus strain SAP0017 biofilm formation was initially analyzed using a static abiotic solid surface assay as described elsewhere (de la Fuente-Nunez et al., 2012) and shown graphically in FIG. 2. Dilutions (1/100) of overnight cultures were incubated in BM2 biofilm-adjusted medium [62 mM potassium phosphate buffer (pH 7), 7 mM (NH4)2SO4, 2 mM MgSO4, 10 μM FeSO4, 0.4% (wt/vol) glucose, 0.5% (wt/vol) Casamino Acids], or a nutrient rich medium such as Tryptic soy broth supplemented with 1% glucose, in polypropylene microtiter plates (Falcon, United States) in the absence (control) or presence of peptide. Peptide was added at time zero (prior to adding the diluted, overnight cultures) in varying concentrations, and the amount biofilm formation was recorded after 22-46 h incubation for most bacteria. To quantify biofilm growth, planktonic cells were removed and biofilm cells adhering to the side of the wells were stained with crystal violet, and absorbance at 595 nm was measured using a microtiter plate reader (Bio-Tek Instruments Inc., United States).

Row | Substance | % Biofilm Inhibition [%]
1 | C108 (VRLI[Orn]AVRIWRR-NH2; N-terminus assumed; SMILES CC[C@H](C)[C@H](NC(=O)[C@H](CC(C)C)NC(=O)[C@H](CCCNC(=N)N)NC(=O)[C@@H](N)C(C)C)C(=O)N[C@@H](CCCN)C(=O)N[C@@H](C)C(=O)N[C@H](C(=O)N[C@@H](CCCNC(=N)N)C(=O)N[C@H](C(=O)N[C@@H](Cc1c[nH]c2ccccc12)C(=O)N[C@@H](CCCNC(=N)N)C(=O)N[C@@H](CCCNC(=N)N)C(N)=O)[C@@H](C)CC)C(C)C) [Peptide C108] | 104
2 | C109 (VRLIVA[Orn]RIWRR-NH2; N-terminus assumed; SMILES CC[C@H](C)[C@H](NC(=O)[C@H](CCCNC(=N)N)NC(=O)[C@H](CCCN)NC(=O)[C@H](C)NC(=O)[C@@H](NC(=O)[C@@H](NC(=O)[C@H](CC(C)C)NC(=O)[C@H](CCCNC(=N)N)NC(=O)[C@@H](N)C(C)C)[C@@H](C)CC)C(C)C)C(=O)N[C@@H](Cc1c[nH]c2ccccc12)C(=O)N[C@@H](CCCNC(=N)N)C(=O)N[C@@H](CCCNC(=N)N)C(N)=O) [Peptide C109] | 104
3 | C110 (VRLIVAVR[Orn]WRR-NH2; N-terminus assumed; SMILES CC[C@H](C)[C@H](NC(=O)[C@H](CC(C)C)NC(=O)[C@H](CCCNC(=N)N)NC(=O)[C@@H](N)C(C)C)C(=O)N[C@H](C(=O)N[C@@H](C)C(=O)N[C@H](C(=O)N[C@@H](CCCNC(=N)N)C(=O)N[C@@H](CCCN)C(=O)N[C@@H](Cc1c[nH]c2ccccc12)C(=O)N[C@@H](CCCNC(=N)N)C(=O)N[C@@H](CCCNC(=N)N)C(N)=O)C(C)C)C(C)C) [Peptide C110] | 100
4 | C111 (VRLIVAVRI[Orn]RR) [Peptide C111] | 92

same assay, conditions: SPOT synthesized peptide, ~12.5 μM, clinical MRSA strain, crystal violet assay

Row | Substance | % Residual MRSA biofilm growth compared to untreated control [%]
5 | DabRLIVAVRIWRR ([Dab]RLIVAVRIWRR-NH2; N-terminus assumed; SMILES CC[C@H](C)[C@H](NC(=O)[C@H](CCCNC(=N)N)NC(=O)[C@@H](NC(=O)[C@H](C)NC(=O)[C@@H](NC(=O)[C@@H](NC(=O)[C@H](CC(C)C)NC(=O)[C@H](CCCNC(=N)N)NC(=O)[C@@H](N)CCN)[C@@H](C)CC)C(C)C)C(C)C)C(=O)N[C@@H](Cc1c[nH]c2ccccc12)C(=O)N[C@@H](CCCNC(=N)N)C(=O)N[C@@H](CCCNC(=N)N)C(N)=O) [Peptide 1018-k13] | 59
6 | GbutRLIVAVRIWRR ([Agb]RLIVAVRIWRR-NH2; N-terminus assumed; SMILES CC[C@H](C)[C@H](NC(=O)[C@H](CCCNC(=N)N)NC(=O)[C@@H](NC(=O)[C@H](C)NC(=O)[C@@H](NC(=O)[C@@H](NC(=O)[C@H](CC(C)C)NC(=O)[C@H](CCCNC(=N)N)NC(=O)[C@@H](N)CCNC(=N)N)[C@@H](C)CC)C(C)C)C(C)C)C(=O)N[C@@H](Cc1c[nH]c2ccccc12)C(=O)N[C@@H](CCCNC(=N)N)C(=O)N[C@@H](CCCNC(=N)N)C(N)=O) [Peptide 1018-r13] | 47
7 | HarRLIVAVRIWRR ([hArg]RLIVAVRIWRR-NH2; N-terminus assumed; SMILES CC[C@H](C)[C@H](NC(=O)[C@H](CCCNC(=N)N)NC(=O)[C@@H](NC(=O)[C@H](C)NC(=O)[C@@H](NC(=O)[C@@H](NC(=O)[C@H](CC(C)C)NC(=O)[C@H](CCCNC(=N)N)NC(=O)[C@@H](N)CCCCNC(=N)N)[C@@H](C)CC)C(C)C)C(C)C)C(=O)N[C@@H](Cc1c[nH]c2ccccc12)C(=O)N[C@@H](CCCNC(=N)N)C(=O)N[C@@H](CCCNC(=N)N)C(N)=O) [Peptide 1018-r25] | 64
8 | IVKWIAQWKLVG (IVKWIAQWKLVG-NH2) [Imax-10] | 100
9 | KKQKKIWRRILV (KKQKKIWRRILV-NH2) [Mmax-16] | 105
10 | OrnRLIVAVRIWRR ([Orn]RLIVAVRIWRR-NH2; N-terminus assumed; SMILES CC[C@H](C)[C@H](NC(=O)[C@H](CCCNC(=N)N)NC(=O)[C@@H](NC(=O)[C@H](C)NC(=O)[C@@H](NC(=O)[C@@H](NC(=O)[C@H](CC(C)C)NC(=O)[C@H](CCCNC(=N)N)NC(=O)[C@@H](N)CCCN)[C@@H](C)CC)C(C)C)C(C)C)C(=O)N[C@@H](Cc1c[nH]c2ccccc12)C(=O)N[C@@H](CCCNC(=N)N)C(=O)N[C@@H](CCCNC(=N)N)C(N)=O) [Peptide 1018-k25] | 44
11 | RQVRVKRWRARW (RQVRVKRWRARW-NH2) [Mmax-18] | 100
12 | VKGAIKRGIWVK (VKGAIKRGIWVK-NH2) [Imax-5] | 99
13 | VOrnLIVAVRIWRR (V[Orn]LIVAVRIWRR-NH2; N-terminus assumed; SMILES CC[C@H](C)[C@H](NC(=O)[C@H](CCCNC(=N)N)NC(=O)[C@@H](NC(=O)[C@H](C)NC(=O)[C@@H](NC(=O)[C@@H](NC(=O)[C@H](CC(C)C)NC(=O)[C@H](CCCN)NC(=O)[C@@H](N)C(C)C)[C@@H](C)CC)C(C)C)C(C)C)C(=O)N[C@@H](Cc1c[nH]c2ccccc12)C(=O)N[C@@H](CCCNC(=N)N)C(=O)N[C@@H](CCCNC(=N)N)C(N)=O) [Peptide 1018-k26] | 63
14 | VRLIVAVHarIWRR (VRLIVAV[hArg]IWRR-NH2; N-terminus assumed; SMILES CC[C@H](C)[C@H](NC(=O)[C@H](CCCCNC(=N)N)NC(=O)[C@@H](NC(=O)[C@H](C)NC(=O)[C@@H](NC(=O)[C@@H](NC(=O)[C@H](CC(C)C)NC(=O)[C@H](CCCNC(=N)N)NC(=O)[C@@H](N)C(C)C)[C@@H](C)CC)C(C)C)C(C)C)C(=O)N[C@@H](Cc1c[nH]c2ccccc12)C(=O)N[C@@H](CCCNC(=N)N)C(=O)N[C@@H](CCCNC(=N)N)C(N)=O) [Peptide 1018-r32] | 45
15 | VRLIVAVOrnIWRR (VRLIVAV[Orn]IWRR-NH2; N-terminus assumed; SMILES CC[C@H](C)[C@H](NC(=O)[C@H](CCCN)NC(=O)[C@@H](NC(=O)[C@H](C)NC(=O)[C@@H](NC(=O)[C@@H](NC(=O)[C@H](CC(C)C)NC(=O)[C@H](CCCNC(=N)N)NC(=O)[C@@H](N)C(C)C)[C@@H](C)CC)C(C)C)C(C)C)C(=O)N[C@@H](Cc1c[nH]c2ccccc12)C(=O)N[C@@H](CCCNC(=N)N)C(=O)N[C@@H](CCCNC(=N)N)C(N)=O) [Peptide 1018-k32] | 46
16 | VRLIVAVRIWHarR (VRLIVAVRIW[hArg]R-NH2; N-terminus assumed; SMILES CC[C@H](C)[C@H](NC(=O)[C@H](CCCNC(=N)N)NC(=O)[C@@H](NC(=O)[C@H](C)NC(=O)[C@@H](NC(=O)[C@@H](NC(=O)[C@H](CC(C)C)NC(=O)[C@H](CCCNC(=N)N)NC(=O)[C@@H](N)C(C)C)[C@@H](C)CC)C(C)C)C(C)C)C(=O)N[C@@H](Cc1c[nH]c2ccccc12)C(=O)N[C@@H](CCCCNC(=N)N)C(=O)N[C@@H](CCCNC(=N)N)C(N)=O) [Peptide 1018-r35] | 33
17 | VRLIVAVRIWOrnR (VRLIVAVRIW[Orn]R-NH2; N-terminus assumed; SMILES CC[C@H](C)[C@H](NC(=O)[C@H](CCCNC(=N)N)NC(=O)[C@@H](NC(=O)[C@H](C)NC(=O)[C@@H](NC(=O)[C@@H](NC(=O)[C@H](CC(C)C)NC(=O)[C@H](CCCNC(=N)N)NC(=O)[C@@H](N)C(C)C)[C@@H](C)CC)C(C)C)C(C)C)C(=O)N[C@@H](Cc1c[nH]c2ccccc12)C(=O)N[C@@H](CCCN)C(=O)N[C@@H](CCCNC(=N)N)C(N)=O) [Peptide 1018-k35] | 34
